Laboratory results taken from patent US7183267B2, “β-lactamase inhibitors and methods of use thereof” (priority 2003, dated 2007).

How the values were obtained:
AmpC β-lactamase [1] = biological target: T1, AmpC β-lactamase (Escherichia coli, UniProt P00811); conditions: binding to AmpC; ITC
T1 construct: made in house; host or cells: E. coli BL21 (DE3)
Method: (§1) Isothermal titration calorimetry was performed on a high-precision VP-ITC titration calorimeter (Microcal Inc., Northampton, Mass.). β-Lactamase solutions were titrated with inhibitors in 50 mM sodium phosphate, 2% DMSO, pH 7.0, with β-lactamase concentrations ranging from 15 to 25 μM and inhibitor concentrations ranging from 300 to 1000 μM. The heat evolved from each injection was obtained by integrating the calorimetric signal. Heat of binding was obtained as the difference between the heat of reaction and the heat of inhibitor dilution. Data were analyzed using Origin 7.0 (OriginLab Corporation, Northampton, Mass.).
Isothermal titration calorimetry was undertaken to determine the thermodynamic characteristics of binding to AmpC β-lactamase.

β-lactamase R244S = β-lactamase R244S (Escherichia coli, UniProt P62593, R241S); assay: Isothermal titration calorimetry, binding enthalpy, R244S mutant
Method: (§2) The binding of the compounds of the present invention to β-lactamase was also measured by isothermal titration calorimetry.
(§3) These experiments, in combination with the inhibition assays, indicate that the compounds identified in this disclosure bind to the wild type as well as drug resistant beta lactamases with favorable binding enthalpies. This is a very important characteristic from the point of view of further optimization since it facilitates the achievement of extremely high affinities and low susceptibilities to drug resistant mutations and naturally occurring polymorphisms.
as §1

TEM-1 β-lactamase = TEM-1 β-lactamase (Escherichia coli, UniProt P62593); assay: TEM-1 β-lactamase inhibition assay (nitrocefin hydrolysis, 486 nm); type: biochemical; conditions: Ki, 25° C., 50 mM sodium phosphate, 5% DMSO, pH 7.0; enzyme 5 nM, nitrocefin 167 μM
In short: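 TEM-1 activity followed by nitrocefin hydrolysis at 486 nm, 25 °C, 50 mM sodium phosphate pH 7.0, 5% DMSO; inhibitor preincubated with enzyme 10 min before substrate. Ki obtained from rates at increasing inhibitor concentrations fitted to competitive-inhibition equations; penicillin G also used as substrate for KM and kcat.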

AmpC β-lactamase [2] = biological target: T1, AmpC β-lactamase; assay: AmpC β-lactamase competitive inhibition assay (nitrocefin hydrolysis); type: biochemical
Method: The gene for AmpC β-lactamase (accession number P00811) was obtained from Escherichia coli K12 strain W3110 (American Type Culture Collection, Rockville Md.). E. coli was grown and plasmid (F-lacIq lacPL8 ampC::lambdacI+) was isolated via Qiagen (Valencia, Calif.) mini prep. The gene for AmpC was amplified in two pieces via polymerase chain reaction, ligated and purified by agarose gel electrophoresis. The ligated gene was inserted into a pET200 vector via a TOPO reaction (Invitrogen, Carlsbad, Calif.).
BL21 (DE3) (Invitrogen) cells were transformed by heat-shock with the prepared plasmid. These cells were grown to an OD600 of 0.8 at 37° C. Isopropylthiogalactoside (IPTG) was added to 1 mM, incubation temperature decreased to 25° C. and the cells were grown for an additional 18 hours. After 18 hours, the E. coli was pelleted by centrifugation, and discarded. The growth media was concentrated and dialyzed versus 100 mM Tris, pH 7.0. This solution was run through an equilibrated Q-resin column, and washed with excess 100 mM Tris, pH 7.0.
The competitive inhibition of β-lactamase was determined spectrophotometrically using a Varian (Walnut Creek, Calif.) Cary 100 UV-Visible spectrophotometer. β-lactamase activity was followed by measuring the hydrolysis of nitrocefin, [3-(2,4-dinitrostyryl)-(6R, 7R)-7-(2-thienylacetamido)-ceph-3-em-4-carboxylic acid, E-isomer], (Calbiochem, San Diego, Calif.) at 486 nm. Inhibition assays were performed at 25° C. in 50 mM sodium phosphate, 5% DMSO, pH 7.0. […] Penicillin G (Sigma, St. Louis, Mo.) was also used as a substrate to determine KM and kcat.
Inhibitor was added to protein and incubated for ten minutes before the addition of substrate. Inhibition constants were determined by measuring the loss of P-lactamase activity with increasing inhibitor concentrations and fitting the data to standard equations for competitive inhibition.

β-lactamase mutant M69I = β-lactamase mutant M69I (Escherichia coli, UniProt P62593, M67I); type: biochemical; conditions: number higher than 1 reflects a loss of potency against mutant
β-lactamase mutant R244S = β-lactamase mutant R244S (Escherichia coli, UniProt P62593, R241S); type: biochemical; conditions: number higher than 1 reflects a loss of potency against mutant
β-lactamase mutant E104K = β-lactamase mutant E104K (Escherichia coli, UniProt P62593, E102K); type: biochemical; conditions: number higher than 1 reflects a loss of potency against mutant
β-lactamase M69I = β-lactamase M69I (Escherichia coli, UniProt P62593, M67I); assay: Isothermal titration calorimetry, binding enthalpy, M69I mutant
Method: as §2, §3, §1

β-lactamase E104K = β-lactamase E104K (Escherichia coli, UniProt P62593, E102K); assay: Isothermal titration calorimetry, binding enthalpy, E104K mutant
Method: as §2, §3, §1

β-lactamase wt = β-lactamase wt (Escherichia coli, UniProt P62593); assay: Isothermal titration calorimetry, binding enthalpy, wild type
Method: as §2, §3, §1

T1 sequence (P00811 20-377): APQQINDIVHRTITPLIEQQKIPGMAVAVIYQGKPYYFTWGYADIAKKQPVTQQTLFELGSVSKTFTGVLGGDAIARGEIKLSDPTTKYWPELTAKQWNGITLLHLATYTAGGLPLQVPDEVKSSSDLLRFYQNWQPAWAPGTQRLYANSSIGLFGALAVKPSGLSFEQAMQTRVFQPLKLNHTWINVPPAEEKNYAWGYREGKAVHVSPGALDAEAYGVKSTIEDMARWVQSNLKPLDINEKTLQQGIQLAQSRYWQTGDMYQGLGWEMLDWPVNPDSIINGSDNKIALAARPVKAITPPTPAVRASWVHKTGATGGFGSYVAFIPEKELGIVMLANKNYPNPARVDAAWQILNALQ

O=C(OCc1ccccc1)c1cc(B(O)O)cc([N+](=O)[O-])c1 [Compound F1201]
ΔG (AmpC β-lactamase [1]): -6.566 kcal/mol | ΔH (AmpC β-lactamase [1]): -5.084 kcal/mol | −TΔS (AmpC β-lactamase [1]): -1.482 kcal/mol | ΔH R244S (β-lactamase R244S): -6.5 kcal/mol | Ki (TEM-1 β-lactamase): 27 µM | Ki (AmpC β-lactamase [2]): 4.45 µM | Loss of potency: ratio of the inhibitory constant between mutant and wild type (Potencywt/Potencymutant), M69I (β-lactamase mutant M69I): 0.52 | Loss of potency: ratio of the inhibitory constant between mutant and wild type (Potencywt/Potencymutant), R244S (β-lactamase mutant R244S): 0.86 | Loss of potency: ratio of the inhibitory constant between mutant and wild type (Potencywt/Potencymutant), E104K (β-lactamase mutant E104K): 0.48 | ΔH M69I (β-lactamase M69I): -2.4 kcal/mol | ΔH E104K (β-lactamase E104K): -3.5 kcal/mol | ΔH wt (β-lactamase wt): -3.2 kcal/mol
